This experiment concerns the target T1, GBA2 (Homo sapiens, UniProt Q9HCG7).
T1 sequence (Q9HCG7 1-927): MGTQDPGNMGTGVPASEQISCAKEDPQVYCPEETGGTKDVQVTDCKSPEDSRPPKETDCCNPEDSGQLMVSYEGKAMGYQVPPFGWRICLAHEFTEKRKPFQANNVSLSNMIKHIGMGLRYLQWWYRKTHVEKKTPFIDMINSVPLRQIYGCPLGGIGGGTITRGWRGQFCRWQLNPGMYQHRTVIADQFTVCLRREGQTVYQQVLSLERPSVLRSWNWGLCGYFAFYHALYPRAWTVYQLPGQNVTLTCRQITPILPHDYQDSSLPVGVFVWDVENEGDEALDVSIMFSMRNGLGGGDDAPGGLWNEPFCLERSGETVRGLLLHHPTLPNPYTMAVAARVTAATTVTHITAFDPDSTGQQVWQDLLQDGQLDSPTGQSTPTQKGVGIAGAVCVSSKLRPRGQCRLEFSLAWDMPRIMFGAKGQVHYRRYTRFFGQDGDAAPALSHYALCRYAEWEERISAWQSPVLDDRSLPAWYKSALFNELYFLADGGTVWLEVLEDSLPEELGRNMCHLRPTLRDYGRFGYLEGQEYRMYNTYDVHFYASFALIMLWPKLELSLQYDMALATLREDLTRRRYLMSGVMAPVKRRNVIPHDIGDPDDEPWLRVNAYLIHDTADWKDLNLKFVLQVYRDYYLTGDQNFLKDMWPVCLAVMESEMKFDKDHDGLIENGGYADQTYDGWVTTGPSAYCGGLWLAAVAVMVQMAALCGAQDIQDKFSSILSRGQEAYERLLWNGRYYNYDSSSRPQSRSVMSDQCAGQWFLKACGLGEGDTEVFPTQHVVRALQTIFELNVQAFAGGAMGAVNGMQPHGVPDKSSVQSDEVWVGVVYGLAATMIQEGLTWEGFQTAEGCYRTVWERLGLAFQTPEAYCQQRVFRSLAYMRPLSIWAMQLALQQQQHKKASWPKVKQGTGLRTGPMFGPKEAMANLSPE
The experiment is described as follows: Confocal microscopy of ABP 4 staining after inhibitor pre-treatment in GBA2 overexpressing cells. Format: cell-based. Also on record: expressed in transfected cells; host or cells: HEK293T GBA1/GBA2 KO (CRISPR/Cas9), GBA2 overexpressed. Conditions: 16 h pre-treatment (21 100 nM, 22 500 nM), then ABP 4 50 nM 2 h; GBA2 OE HEK293T cells. How it is done: To confirm the specific staining of GBA2, cells overexpressing GBA2 were pre-treated with either the specific GBA1 inhibitor 21 [32] or the GBA1/GBA2 inhibitor 22.[36]
Figure S11. Confocal fluorescence microscopy of A) HEK293T wild-type (WT), GBA2 overexpression (OE) or GBA1/2 knock out (KO) + GBA2 overexpression (OE) cells. Cells were pre-treated with either DMSO, GBA1/GBA2 inhibitor 22 or GBA1 selective inhibitor 21, and afterwards incubated with β-D-Araf aziridine BODIPY-red ABP 4 (50 nM) for 2 h. Subsequently, cells were fixed and stained for GBA1 (Green) with an anti-GBA1 antibody. B) RAW264.7 cells pre-treated with either DMSO or GBA1/GBA2 inhibitor 22 and incubated β-D-Araf aziridine ABP 4 for (50 nM) for 2 h. […]
Figure S12. […] Competitive ABPP allow for the determination of apparent IC50 values by quantification of the fluorescence intensity of ABP 7 as described in experimental section. […]
2.12 Reactivity of β-D-Araf aziridines towards GBA2 orthologue in other species β-D-Araf aziridine ABP 3-5 or ABP 7 was incubated with homogenates of zebrafish (Danio rerio) larvae or mice brain for 1 h at 37 °C. […] The zebrafish homogenates were passed through a desalting column (in the same way as described for the irreversibility evaluation above) to remove interference from biological pigments when scanning at λEX 473 nm and λEM ≥ 510 nm for BODIPY green fluorescence. […]

Structures are written as SMILES.

With `CCCCCN1[C@@H]2[C@H](CO)[C@@H](O)[C@H](O)[C@@H](O)[C@@H]21` (stereo partly shown) [Inhibitor 22], the “Effect of pre-treatment on ABP 4 staining of GBA2” value is “completely abrogated”.

The record behind these values is publication PMC11375437, “Selective labelling of GBA2 in cells with fluorescent β-D-arabinofuranosyl cyclitol aziridines” (Chemical Science, 2024).
